Laboratory results reported in PMC7500638, “Dissecting the antibacterial activity of oxadiazolone-core derivatives against Mycobacterium abscessus” (PLoS ONE, 2020).

Target: T1, Ag85CMabs (Ag85C, MAB_0175) (Mycobacteroides abscessus, UniProt B1MEL1)
T1 construct: C-terminal 6His-tag; pMyC vector, expressed in M. smegmatis delta-groEL1
Test: competitive TAMRA-FP activity-based probe labelling, in-gel fluorescence
Type: binding
Conditions: covalent; 14 uM enzyme, 1 h preincubation, 10 mM Tris pH 8, 150 mM NaCl, 0.1% Triton X-100; catalytic Ser124

T1 sequence (B1MEL1 entry or part of it): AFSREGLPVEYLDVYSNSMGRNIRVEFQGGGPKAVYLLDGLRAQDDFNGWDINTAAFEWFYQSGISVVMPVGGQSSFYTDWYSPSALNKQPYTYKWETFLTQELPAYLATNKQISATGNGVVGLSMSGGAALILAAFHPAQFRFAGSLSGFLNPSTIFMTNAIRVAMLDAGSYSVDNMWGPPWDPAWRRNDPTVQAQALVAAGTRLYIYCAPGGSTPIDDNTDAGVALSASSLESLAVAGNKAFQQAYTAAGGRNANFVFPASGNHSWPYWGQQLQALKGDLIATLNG

CC(C)COc1nn(-c2ccc(Oc3ccccc3)cc2)c(=O)o1 [iBpPPOX]
% loss of TAMRA-FP labelling at E/I 1:75: > 90%
